Laboratory results taken from ChEMBL document CHEMBL5120920, “A Mitochondria-Targeted Phenylbutyric Acid Prodrug Confers Drastically Improved Anticancer Activities” (J Med Chem, 2022).
Active and inactive are the calls of the source. No cut-off for these calls is given here.

Tests used:
A-375 [1] = assay: Antitumor activity against human A-375 cells xenografted in nude mouse assessed as induction of apoptosis by measuring morphological changes at 40 mg/kg, ip measured once every two days for 14 days by TUNEL assay; format: functional, organism-based; conditions: time 14.0 day
A-375 [2] = assay: Cytotoxicity against human A-375 cells assessed as reduction in cell vaibility measured at 48 hrs in presence of BNPP by MTT assay; format: functional, cell-based; conditions: A-375, 48 h
MCF7 [3] = assay: Induction of mitochondrial membrane hyperpolarization in human MCF7 cells assessed as JC-1 level at 2.5 to 10 uM incubated for 4 hrs by JC-1 staining based flow cytometry analysis relative to control; format: functional; conditions: dose 2.5-10 µM
A-375 [4] = assay: Antitumor activity against human A-375 cells implanted in BALB/c mouse assessed as reduction in tumor weight at 40 mg/kg, ip measured once every two days for 14 days; format: functional, organism-based; conditions: time 14.0 day
A-375 [5] = assay: Induction of cell cycle arrest in human A-375 cells assessed as accumulation at S phase at 2.5 uM incubated for 24 hrs by PI staining based flow cytometry analysis (reference value: 24.01 %); format: functional
A549 = assay: Induction of mitochondrial membrane hyperpolarization in human A549 cells assessed as JC-1 level at 2.5 to 10 uM incubated for 4 hrs by JC-1 staining based flow cytometry analysis relative to control; format: functional; conditions: dose 2.5-10 µM
A-375 [6] = assay: Antitumor activity against human A-375 cells implanted in BALB/c mouse assessed as tumor growth inhibition at 40 mg/kg, ip measured once every two days for 14 days; format: functional, organism-based; conditions: time 14.0 day
[7] = Toxicity in BALB/c mouse assessed as change in body weight at 100 mg/kg, iv administered for 7 days and measured once per 2 days; format: organism-based; conditions: in vivo, 168 h, time 7 day
A-375 [8] = assay: Antiproliferative activity against human A-375 cells assessed as inhibition of cell viability incubated for 72 hrs by MTT assay; format: functional, cell-based; conditions: A-375, 72 h
A-375 [9] = assay: Inhibition of glycolysis in human A-375 cells assessed as reduction in lactate formation at 0.25 to 5 uM incubated for 8 hrs; format: functional, cell-based; conditions: dose 0.25-5 µM
[10] = biological target: Histone deacetylase (Homo sapiens) (UniProt Q13547+O15379+Q9UBN7+Q92769+Q9UQL6+Q8WUI4+Q9BY41+Q96DB2+P56524+Q9UKV0+Q969S8); assay: Inhibition of HDAC in human A-375 cells assessed as upregulation of histone-H3 acetylation at 5 to 20 uM measured after 24 hrs; format: cell-based; conditions: dose 5-20 µM
A-375 [11] = assay: Antitumor activity against human A-375 cells xenografted in nude mouse assessed as reduction in tumor weight at 10 to 40 mg/kg, ip measured once every two days for 14 days; format: functional, organism-based; conditions: dose 10-40 mg/kg, time 14.0 day
HEK-293T = assay: Induction of mitochondrial membrane hyperpolarization in HEK293T cells assessed as JC-1 level at 2.5 to 10 uM incubated for 4 hrs by JC-1 staining based flow cytometry analysis relative to control; format: functional, Homo sapiens; conditions: dose 2.5-10 µM
A-375 [12] = assay: Antitumor activity against human A-375 cells xenografted in nude mouse assessed as shrinkage of tumor tissue at 10 to 40 mg/kg, ip measured once every two days for 14 days; format: functional, organism-based; conditions: dose 10-40 mg/kg, time 14.0 day
A-375 [13] = assay: Inhibition of glycolysis in human A-375 cells assessed as reduction in extracellular acidification rate at 0.25 to 1 uM measured after 4 hrs; format: functional, cell-based; conditions: dose 0.25-1 µM
HUVEC = assay: Induction of mitochondrial membrane hyperpolarization in HUVEC assessed as JC-1 level at 2.5 to 10 uM incubated for 4 hrs by JC-1 staining based flow cytometry analysis relative to control; format: functional, Homo sapiens; conditions: dose 2.5-10 µM
A-375 [14] = assay: Antitumor activity against human A-375 cells xenografted in nude mouse assessed as tumor growth inhibition at 10 to 40 mg/kg, ip and measured once every two days for 14 days; format: functional, organism-based; conditions: dose 10-40 mg/kg, time 14.0 day
[15] = Stability of the compound assessed as Carboxylesterase (unknown origin) mediated compound hydrolysis measured upto 150 mins by RP-HPLC-UV analysis; format: ADME; conditions: human, 2.5 h
A-375 [16] = assay: Cytotoxicity against human A-375 cells assessed as reduction in cell vaibility measured at 24 hrs in absence of BNPP by MTT assay; format: functional, cell-based; conditions: A-375, 24 h
[17] = Apparent permeability across apical to basolateral side in human Caco-2 cells at 2 uM measured after 2 hrs by LC-MS/MS analysis; format: ADME, cell-based
A-375 [18] = assay: Induction of cell cycle arrest in human A-375 cells assessed as accumulation at G1 phase at 2.5 uM incubated for 24 hrs by PI staining based flow cytometry analysis (reference value: 68.07 %); format: functional
A-375 [19] = assay: Induction of mitochondrial membrane hyperpolarization in human A-375 cells assessed as JC-1 level at 2.5 to 10 uM incubated for 4 hrs by JC-1 staining based flow cytometry analysis relative to control; format: functional; conditions: dose 2.5-10 µM
L02 = assay: Induction of mitochondrial membrane hyperpolarization in human L02 cells assessed as JC-1 level at 2.5 to 10 uM incubated for 4 hrs by JC-1 staining based flow cytometry analysis relative to control; format: functional; conditions: dose 2.5-10 µM
MCF7 [20] = assay: Antiproliferative activity against human MCF7 cells assessed as inhibition of cell viability incubated for 72 hrs by MTT assay; format: functional, cell-based; conditions: MCF7, 72 h
[21] = Toxicity in BALB/c mouse assessed as effect on body weight at 125 to 200 mg/kg, iv administered for 7 days and measured once per 2 days; format: organism-based; conditions: in vivo, 168 h, dose 125-200 mg/kg, time 7 day
A-375 [22] = assay: Cytotoxicity against human A-375 cells assessed as reduction in cell vaibility measured at 48 hrs in absence of BNPP by MTT assay; format: functional, cell-based; conditions: A-375, 48 h
[23] = Drug uptake in human A-375 cells mitochondria assessed as fold increase at 10 uM measured after 4 hrs relative to PBA; format: ADME; conditions: a-375, 4 h
[24] = Toxicity in BALB/c mouse at 200 mg/kg, iv administered for 7 days; format: organism-based; conditions: in vivo, 168 h, time 7 day
A-375 [25] = assay: Induction of cell cycle arrest in human A-375 cells assessed as accumulation at G2 phase at 7.5 uM incubated for 24 hrs by PI staining based flow cytometry analysis (reference value: 7.92 %); format: functional
[26] = Toxicity in BALB/c mouse assessed as death of animal at 125 to 200 mg/kg, iv administered for 7 days; format: organism-based; conditions: in vivo, 168 h, dose 125-200 mg/kg, time 7 day
[27] = Stability of the compound in Tris-HCL buffer at pH 7.4 measured for 24 hrs by RP-HPLC-UV analysis; format: physicochemical; conditions: pH 7.4, 24 h
A-375 [28] = assay: Antitumor activity against human A-375 cells xenografted in nude mouse assessed as induction of apoptosis by measuring morphological changes at 40 mg/kg, ip measured once every two days for 14 days by H and E staining based assay; format: functional, organism-based; conditions: time 14.0 day
HaCaT = assay: Induction of mitochondrial membrane hyperpolarization in human HaCaT cells assessed as JC-1 level at 2.5 to 10 uM incubated for 4 hrs by JC-1 staining based flow cytometry analysis relative to control; format: functional; conditions: dose 2.5-10 µM
A-375 [29] = assay: Induction of mitochondrial membrane depolarization in human A-375 cells assessed as increase in JC-1 monomer at 10 uM incubated for 4 hrs by JC-1 staining based flow cytometry analysis; format: functional, cell-based
A-375 [30] = assay: Induction of cell cycle arrest in human A-375 cells assessed as accumulation at S phase at 7.5 uM incubated for 24 hrs by PI staining based flow cytometry analysis (reference value: 24.01 %); format: functional

O=C(CCCCCCCCC[P+](c1ccc(C(F)(F)F)cc1)(c1ccc(C(F)(F)F)cc1)c1ccc(C(F)(F)F)cc1)NC(COC(=O)CCCc1ccccc1)(COC(=O)CCCc1ccccc1)COC(=O)CCCc1ccccc1.[Br-]
Activity (A-375 [1]): Active | IC50 (A-375 [2]): 18.9 µM | Activity (MCF7 [3]): 3.6% | Activity (A-375 [4]): Active | Activity (A-375 [5]): 16.71% | Activity (A549): 5.01% | Activity (A-375 [6]): Active | Activity [7]: Non-Toxic | IC50 (A-375 [8]): 2.22 µM | inhibition (A-375 [9]): Active | inhibition [10]: Active | Activity (A-375 [11]): Active | Activity (HEK-293T): 18.91% | Activity (A-375 [12]): Active | inhibition (A-375 [13]): Active | Activity (HUVEC): 16.08% | Activity (A-375 [14]): Active | Stability [15]: Unstable | IC50 (A-375 [16]): 6.06 µM | Papp A→B at 2 h, 2 µM [17]: 24.3 ×10⁻⁶ cm/s | Activity (A-375 [18]): 74.71% | Activity (A-375 [19]): 2.22% | Activity (L02): 11.49% | IC50 (MCF7 [20]): 6.02 µM | Activity [21]: Non-Toxic | IC50 (A-375 [22]): 3.34 µM | Drug uptake [23]: Active | Activity [24]: Non-Toxic | Activity (A-375 [25]): 7.88% | Activity [26]: Non-Toxic | Stability [27]: Stable | Activity (A-375 [28]): Active | Activity (HaCaT): 12.67% | Activity (A-375 [29]): Active | Activity (A-375 [30]): 11.75%
